Experimental data reported in patent US20230405006A1, “COMBINATION PHARMACEUTICAL COMPOSITION AND TREATMENT METHOD” (CARNA BIOSCIENCES, INC., priority 2020, published 2023).

Experiments:
[1] = system: mouse colorectal cancer cell line CT26.WT; test: Antitumor effect in allograft (syngeneic) mouse model with mouse colorectal cancer cell line CT26.WT; format: in vivo; conditions: for tumor growth (time course of tumor volume): CT26.WT subcutaneous, FIG. 1
Experimental: The antitumor effect of the compound according to the present invention was examined by using a syngeneic mouse tumor model with the mouse colorectal cancer cell line CT26.WT (subcutaneous transplantation).
(§1) To RPMI-1640 medium (Life Technologies, No. A1049101), 10% FBS (Biowest) and 1% penicillin streptomycin (NACALAI TESQUE, INC.) were added to prepare a cell culture medium (hereinafter, referred to as the medium 1). CT26.WT cells (ATCC) were cultured with the medium 1 in a flask in a 5% CO2 incubator.
The cell density of CT26.WT cells was adjusted with RPMI-1640 medium (containing 1% penicillin streptomycin, hereinafter, referred to as the medium 2) to 5×10^6 cells/mL; thus a cell preparation solution for transplantation was produced. Into the back of each BALB/cCrslc mouse (female, 8-week-old, Japan SLC, Inc.), 0.1 mL of the cell preparation solution for transplantation was subcutaneously transplanted. On day 3 after the transplantation of cancer cells, the cancer-bearing mice were grouped in such a manner that the means of tumor volume (see a calculation formula below) approximated to each other.
As a sample solution for administration of the test substance, a 1.5 mg/mL solution was prepared. The test substance (71.9 mg) was dissolved in DMSO (2.4 mL, NACALAI TESQUE, INC.), to which polyethylene glycol #400 (24.0 mL, NACALAI TESQUE, INC.) was added and mixed well, and 21.5 mL of 30% (w/v) aqueous solution of 2-hydroxypropyl-β-cyclodextrin (HP-β-CD, Wacker Chemical AG) was then added thereto to produce a 1.5 mg/mL sample solution for administration. […]
Forced oral administration of 0.1 mL of the test substance or a solvent per 10 g body weight on that day (15 mg/kg) was performed to each mouse with transplanted cancer cells (six mice per group) twice per day (interval: 6 hours or longer) from day 3 to day 21 after the transplantation. […] The mice were followed up until day 48 after the transplantation, and the tumor diameter of each mouse was measured to calculate the tumor volume by using the following formula several times per week for evaluation of the antitumor effect. […]

[2] = system: mouse B-cell lymphoma cell line A20; test: Antitumor effect in allograft (syngeneic) mouse model with mouse B-cell lymphoma cell line A20; format: in vivo
Experimental: The antitumor effect of the compound according to the present invention was examined by using a syngeneic mouse tumor model with the mouse B-cell lymphoma cell line A20 (subcutaneous transplantation).
as §1, with “FBS (HyClone), 0.05 mM 2-mercaptoethanol,” for “FBS (Biowest)”, “medium 3). A20 cell” for “medium 1). CT26.WT cells”, “medium 3” for “medium 1”
The density of A20 cells was adjusted with the medium 2 to 5×10^7 cells/mL; thus a cell preparation solution for transplantation was produced. […]
Forced oral administration of 0.1 mL of the test substance or a solvent per 10 g body weight on that day (15 mg/kg) was performed to each mouse with transplanted cancer cells (six mice per group) twice per day (interval: 6 hours or longer) from day 3 to day 14 after the transplantation. […] The mice were followed up until day 46 after the transplantation, and the tumor diameter of each mouse was measured to calculate the tumor volume by using the same formula as in Example 1 several times per week for evaluation of the antitumor effect.
In addition, tumor was excised from each mouse on day 46 after the transplantation, and the tumor weight was measured.

SMILES: Nc1nc(-c2cccc(-n3ccc4cc(C5CC5)cc(F)c4c3=O)c2CO)c2cc(C3=CCN(C4COC4)CC3)[nH]c2n1 [Compound (I-A), 2-(3-{2-amino-6-[1-(oxetan-3-yl)-1,2,3,6-tetrahydropyridin-4-yl]-7H-pyrrolo[2,3-d]pyrimidin-4-yl}-2-(hydroxymethyl)phenyl)-6-cyclopropyl-8-fluoroisoquinolin-1(2H)-one]
- tumor growth (time course of tumor volume) ([1]; I-A 15 mg/kg oral twice per day in combination with anti-PD-1 antibody 10 mg/kg i.p. twice per week): significant tumor growth suppression/tumor regression effect
- complete regression of tumor (mice with transplanted tumor) ([1]; I-A 15 mg/kg oral twice per day in combination with anti-PD-1 antibody 10 mg/kg i.p., CT26.WT, six mice per group): five of the six
- tumor growth (time course of tumor volume) ([1]; I-A alone, 15 mg/kg oral twice per day, day 3 to 21, BALB/c mice, followed to day 48): suppressed tumor growth
- tumor growth / tumor weight on day 46 after the transplantation ([2]; I-A 15 mg/kg oral twice per day (day 3 to 14) in combination with anti-PD-1 antibody 10 mg/kg i.p. twice per week, A20 subcutaneous, FIG. 2): significant tumor growth suppression/tumor regression effect
- complete regression of tumor (mice with transplanted tumor) ([2]; I-A 15 mg/kg oral twice per day in combination with anti-PD-1 antibody 10 mg/kg i.p., A20, six mice per group): five of the six
